Patent US20240076272A1, “Activators of Heme Regulated Inhibitor Kinase (HRI)” (The Brigham and Women`s Hospital, Inc., priority 2019, published 2024)
Several values for one entry are separate records, joined by “and”; a condition that tells them apart may be missing. Identical values can stand only once.

What was measured:
[1] = test system: eIF2α phosphorylation (ATF-4 5′UTR luciferase reporter); test: surrogate eIF2α phosphorylation dual-luciferase reporter (DLR) assay; assay type: cell-based; conditions: F/R luciferase ratio normalized to DMSO wells (F/R=1); for fold induction at 1.25 µM: read-out: Fold stimulation of ATF-4 Surrogate eIF2α @ 1.25 μM; for fold induction at 5 µM: read-out: Fold stimulation of ATF-4 Surrogate eIF2α @ 5 μM
From the text: The dual luciferase expression vector and other plasmids used in the Examples provided herein have been previously reported (see e.g., Ziegeler et al, J. Biol. Chem. 285 (2010) 15408-15419). The dual luciferase surrogate eIF2α phosphorylation assay, has also been previously reported (see e.g., Chen et al, Nat. Chem. Biol. 7 (2011) 610-616). Briefly, a dual Renilla and Firefly luciferase mammalian reporter vector that transcribes both mRNAs from the same bi-directional enhancer/promoter complex was utilized for generation of surrogate eIF2α phosphorylation assay (see e.g., Ziegeler et al, J. Biol. Chem. 285 (2010) 15408-15419). Both mRNAs contained the same 90 nucleotide plasmid derived 5′UTR. In addition, 5′UTR of the Firefly luciferase open reading frame was fused in-frame to the 267 nucleotide ATF-4 5′UTR (see e.g., Chen et al, Nat. Chem. Biol. 7 (2011) 610-616).
Cells expressing firefly and renilla luciferases were assayed with a dual glow luciferase assay kit, per manufacturer's instruction (Promega Inc., Madison, WI). The data calculations were carried out as the ratio of firefly to renilla luciferase signal (see e.g., Ziegeler et al, J. Biol. Chem. 285 (2010) 15408-15419). Dose-response curves were obtained, and triplicate data points were fitted to the logistical sigmoidal model using nonlinear least-squares regression performed in GraphPad Prism 6.
All newly synthesized N,N′-disubstituted ureas were initially evaluated by testing in the surrogate eIF2α phosphorylation dual-luciferase reporter (DLR) assay (see e.g., Chen et al, Nat. Chem. Biol. 7 (2011) 610-616; and Ziegeler et al, J. Biol. Chem. 285 (2010) 15408-15419). Briefly, this assay takes advantage of the fact that activated HRI phosphorylates eIF2α which inhibits eIF2 guanine nucleotide exchange factor eIF2B, responsible for exchanging the GDP in the eIF2·GDP complex for GTP. The reduction in the recycling of eIF2·GDP into eIF2·GTP interferes with the formation of eIF2·GTP·Met-tRNAi ternary complex. […] These include mRNA coding for activating transcription factor 4 (ATF-4) (see e.g., Aktas et al, Oncotarget, 4 (2013) 1606-1617; Aktas et al, Oncotarget, 6 (2015) 6902-6914; and Aktas et al, Proc. Natl. Acad. Sci. U.S.A. 95 (1998) 8280-8285).
In the present assay, firefly (F) luciferase mRNA was fused to the 5′UTR of ATF-4 mRNA that had multiple uORFs, while renilla (R) luciferase mRNA was fused to a 5′UTR lacking any uORFs. Agents that reduce the amount of the eIF2·GTP·Met-tRNAi ternary complex, such as N,N′-disubstituted ureas that activate HRI, increase F luciferase expression while reducing the R luciferase expression, resulting in an increased F/R luciferase ratio. The ureas of the present application were tested at 10 μM, 5 μM, 2.5 μM, and 1.25 μM concentrations in 96-well assay plates (see e.g., Chen et al, Nat. Chem. Biol. 7 (2011) 610-616; and Bai et al, ChemBioChem, 14 (2013) 1255-1262). The activity scores as the F/R ratios were calculated for every compound-treated well and normalized to F/R ratio of vehicle-treated (DMSO) wells in the same plate, arbitrarily set at 1 (F/R=1). Data obtained in the surrogate dual-luciferase eIF2α phosphorylation (DLR) assay for the series of 1-phenyl-3/4-(4-trifluorometyl) phenoxy-cycloalkyl)ureas (4-CF3-ΦcAlkΦUs) and 1-phenyl-3-(5-(4-(trifluoromethyl) phenoxy)pyrimidin-2-yl)ureas (4-CF3-ΦOPyΦUs) described herein are shown in Tables 1-2.

cyclin D1 = test: Western blot, cyclin D1 expression in CRL-2813 cells; assay type: cell-based, human; conditions: 5 μM, 8 hours, Western blot (FIG. 2B)
Description: FIGS. 2A-2B show HRI activators of the present application induce eIF2α phosphorylation and modify its downstream effectors. In FIG. 2A, CRL-2813 cells were treated with 5 μM of each compound for 2 hours, cell lysates were probed with phosphorylated (P-eIF2α) and total eIF2α (T-eIF2α) and β-actin specific antibodies. In FIG. 2B, CRL-2813 cells were treated with 5 μM HRI activators for 8 hours and lysates were immunoblotted with antibodies against CHOP, p27^KiPl, cyclin D1 and β-actin.
Cells cultured under recommended media conditions were plated and maintained in serum-containing media without antibiotics in 14-cm plates (Nunc) until reaching 70% confluence. Cells were then treated with compounds for 6 h, washed with cold PBS once, and lysed with M-PER Mammalian Protein Extraction Reagent (Pierce) for 30 min on ice. The cell lysates were centrifuged at 12,000 RPM for 15 min and the supernatants were transferred to fresh tubes and the concentrations were determined by BCA (Pierce). Equal amount of proteins were mixed with Laemmli Sample Buffer, heated at 100° C. for 5 min, separated by SDS-PAGE, and probed with anti-phosphoserine-51-eIF2α (Phos-eIF2α), anti-total eIF2α-specific antibodies (Total-eIF2α) (Biosource International, Hopkinton, MA), anti-CHOP, anti-cyclin D1 or anti-actin (Santa Cruz Biotechnology, CA) using procedures substantially similar to previous reports (see e.g., Aktas et al, Mol. Cell. Biol. 17 (1997) 3850-3857).
Endogenous eIF2α is the best-known substrate of HRI and the upstream regulator of the eIF2·GTP·Met-tRNAi ternary complex abundance, while CHOP expression is a downstream effector of eIF2α phosphorylation. For assessing eIF2α phosphorylation, blotted cell lysates were treated for two hours with vehicle or selected compounds using antibodies specific for the total-eIF2α and the phosphorylated-eIF2α (T-eIF2α and [PhoS^51]-eIF2α), respectively (see e.g., Aktas et al, J. Nutr. 134 (2004) 2487S-2491S) (see FIG. 2A).

Structure (SMILES) | Fold stimulation of ATF-4 Surrogate eIF2α @ 1.25 μM [1] | fold induction at 1.25 µM [1] | Fold stimulation of ATF-4 Surrogate eIF2α @ 5 μM [1] | fold induction at 5 µM [1] | expression of cyclin D1 relative to DMSO (cyclin D1)
N#Cc1cc(NC(=O)N[C@H]2C[C@H](Oc3ccc(C(F)(F)F)cc3)C2)cc(C(F)(F)F)c1 [Compound 1-IV, 1-(3-Cyano-5-(trifluoromethyl)phenyl)-3-(trans-3-(4-(trifluoromethyl)phenoxy)cyclobutyl)urea] | 4.4 ± 1.1 fold | 4.4 | 10 ± 1.8 fold | 10 | decreased the expression of cyclin D1
N#Cc1cc(NC(=O)N[C@H]2CC[C@H](Oc3ccc(C(F)(F)F)cc3)CC2)cc(C(F)(F)F)c1 [Compound 1-VI, 1-(3-cyano-5-trifluoromethyl) phenyl-3-(trans-4-(4-(trifluoromethyl)phenoxy)cyclohexyl)urea, reference compound] | 5.7 fold and 5.7 ± 1.4 fold | – | 13.8 fold and 13.8 ± 1.5 fold | – | decreased the expression of cyclin D1
N#Cc1ccc(NC(=O)N[C@H]2CC[C@H](Oc3ccc(C(F)(F)F)cc3)CC2)cc1F [Compound 5-VI, 1-(4-Cyano-3-fluorophenyl)-3-(trans-4-(4-(trifluoromethyl)phenoxy)cyclohexyl)urea] | 5.5 ± 0.4 fold | 5.5 | – | 10.4 ± 1 | decreased the expression of cyclin D1
N#Cc1cc(F)cc(NC(=O)N[C@H]2CC[C@H](Oc3ccc(C(F)(F)F)cc3)CC2)c1 [Compound 4-VI, 1-(3-Cyano-5-fluorophenyl)-3-(trans-4-(4-(trifluoromethyl)phenoxy)cyclohexyl)urea] | – | 4.6 ± 0.7 | – | 9.3 ± 1.3 | decreased the expression of cyclin D1
